How the values were obtained:
[1] = test system: Ba/F3 (N-Ras G12D); test: Inhibition of cell proliferation (GI50); format: cell-based; details: Mus musculus, BaF3; mt-NRAS (G12D) Ba/F3 cell line; read-out: Proliferation inhibitory activity (GI50, μM) Ba/F3 (N-Ras G12D)
Method: (§1) The inhibitory activities of the compounds of the present invention against the proliferation of the mt-NRAS (G12D) Ba/F3 and […] (mt-NRAS) cell lines were measured and the GI50 values thereof were calculated.

[2] = test system: OCI-AML3 (N-Ras Q61L); test: Inhibition of cell proliferation (GI50); format: cell-based; details: Homo sapiens, OCI-AML-3; OCI-AML3 cell line; read-out: Proliferation inhibitory activity (GI50, μM) OCI-AML3 (N-Ras Q61L)
Method: as §1
Referring to the results in Table 2, it can be seen that the compound of the present invention has inhibitory activity against the proliferation of the human acute myeloid leukemia cell line (OCI-AML3) having the NRAS mutant gene, and the effect thereof is remarkable. Therefore, it can be seen that the compound of the present invention is particularly effective as a therapeutic agent for acute myeloid leukemia (AML).

[3] = target: T1, GCK (Homo sapiens, UniProt Q12851); test: Kinase inhibitory activity, IC50; format: biochemical
T1 sequence (Q12851 1-820): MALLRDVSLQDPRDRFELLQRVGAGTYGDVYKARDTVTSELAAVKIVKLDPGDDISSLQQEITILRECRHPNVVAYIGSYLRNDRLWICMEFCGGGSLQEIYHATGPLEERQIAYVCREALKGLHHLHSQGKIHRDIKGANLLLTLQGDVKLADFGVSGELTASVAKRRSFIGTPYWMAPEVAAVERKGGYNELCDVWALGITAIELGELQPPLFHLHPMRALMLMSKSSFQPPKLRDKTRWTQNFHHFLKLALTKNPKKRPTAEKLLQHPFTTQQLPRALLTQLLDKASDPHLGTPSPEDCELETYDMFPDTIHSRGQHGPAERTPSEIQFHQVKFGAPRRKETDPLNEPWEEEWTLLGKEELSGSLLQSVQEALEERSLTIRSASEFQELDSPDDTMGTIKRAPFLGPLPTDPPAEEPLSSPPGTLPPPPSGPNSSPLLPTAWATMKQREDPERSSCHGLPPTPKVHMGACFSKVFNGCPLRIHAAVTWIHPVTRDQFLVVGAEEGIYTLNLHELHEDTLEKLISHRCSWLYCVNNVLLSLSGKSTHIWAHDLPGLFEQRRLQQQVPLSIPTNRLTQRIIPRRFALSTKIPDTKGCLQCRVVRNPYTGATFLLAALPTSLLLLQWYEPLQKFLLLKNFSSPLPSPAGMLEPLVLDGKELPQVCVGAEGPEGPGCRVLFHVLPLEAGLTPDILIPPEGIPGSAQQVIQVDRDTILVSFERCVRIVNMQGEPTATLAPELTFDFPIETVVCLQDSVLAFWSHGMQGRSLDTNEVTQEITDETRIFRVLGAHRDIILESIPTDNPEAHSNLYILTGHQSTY
Method: (§2) The inhibitory activities of the compounds of the present invention against two kinases, GCK and ACK1, were measured, and the IC50 values thereof were calculated. As a control, the following compound GNF7 was used.

[4] = target: ACK1 (Homo sapiens, UniProt Q07912); test: Kinase inhibitory activity, IC50; format: biochemical
Method: as §2

[5] = test system: Ba/F3 (parental); test: Inhibition of cell proliferation (GI50); format: cell-based; details: Mus musculus, BaF3; Ba/F3 (parental) cell line; read-out: Proliferation inhibitory activity (GI50, μM) Ba/F3 (parental)
Method: The inhibitory activities of the compounds of the present invention against the proliferation of the Ba/F3 (parental) cell line were measured and the GI50 values thereof were calculated.

ACK1, sequence (Q07912 whole entry): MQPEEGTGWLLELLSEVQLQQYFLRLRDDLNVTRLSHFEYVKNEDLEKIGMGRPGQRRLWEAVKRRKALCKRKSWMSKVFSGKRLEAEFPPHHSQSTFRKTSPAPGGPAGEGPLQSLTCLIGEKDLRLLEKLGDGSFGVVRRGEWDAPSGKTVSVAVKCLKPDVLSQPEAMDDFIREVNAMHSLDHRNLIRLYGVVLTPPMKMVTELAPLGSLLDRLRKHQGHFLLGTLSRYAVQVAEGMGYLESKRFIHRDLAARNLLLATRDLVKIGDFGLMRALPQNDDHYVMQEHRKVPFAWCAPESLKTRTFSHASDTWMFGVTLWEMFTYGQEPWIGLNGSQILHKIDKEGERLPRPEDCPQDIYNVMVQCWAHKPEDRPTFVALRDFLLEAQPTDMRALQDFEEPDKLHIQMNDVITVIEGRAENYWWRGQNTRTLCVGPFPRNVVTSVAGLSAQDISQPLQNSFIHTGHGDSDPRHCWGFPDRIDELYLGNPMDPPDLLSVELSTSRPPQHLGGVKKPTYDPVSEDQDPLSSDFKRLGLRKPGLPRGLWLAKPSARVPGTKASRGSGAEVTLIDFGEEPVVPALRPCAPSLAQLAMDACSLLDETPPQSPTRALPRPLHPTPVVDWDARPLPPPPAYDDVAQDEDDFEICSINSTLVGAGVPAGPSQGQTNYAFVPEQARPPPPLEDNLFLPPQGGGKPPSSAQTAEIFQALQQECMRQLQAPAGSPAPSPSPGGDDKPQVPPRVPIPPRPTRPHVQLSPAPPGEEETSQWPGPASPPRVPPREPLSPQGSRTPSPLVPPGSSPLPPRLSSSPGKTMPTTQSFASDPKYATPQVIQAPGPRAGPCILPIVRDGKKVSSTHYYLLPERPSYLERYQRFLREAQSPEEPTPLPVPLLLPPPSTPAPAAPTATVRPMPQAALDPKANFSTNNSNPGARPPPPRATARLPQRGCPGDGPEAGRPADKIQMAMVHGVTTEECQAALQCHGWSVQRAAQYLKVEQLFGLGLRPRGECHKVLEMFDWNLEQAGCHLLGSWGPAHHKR

Cc1ccc(Nc2ncc3cc(-c4cc(NC(=O)c5cccc(C(F)(F)F)c5)ccc4C)nc(Cl)c3n2)cn1 [Compound No. 1, N-(3-(8-chloro-2-((6-methylpyridin-3-yl)amino)pyrido[3,4-d]pyrimidin-6-yl)-4-methylphenyl)-3-(trifluoromethyl)benzamide]
GI50 [1]: < 0.5 µM | GI50 [2]: < 0.5 µM | IC50 [3]: > 10000 nM | IC50 [4]: 100 to 1000 nM | GI50 [5]: > 5 µM

C=Cc1nc(-c2cc(NC(=O)c3cccc(C(F)(F)F)c3)ccc2C)cc2cnc(Nc3ccc(C)nc3)nc12 [Compound No. 2, N-(4-methyl-3-(2-((6-methylpyridin-3-yl)amino)-8-vinylpyrido[3,4-d]pyrimidin-6-yl)phenyl)-3-(trifluoromethyl)benzamide]
GI50 [1]: < 0.5 µM | GI50 [2]: 0.5 to 3 µM | GI50 [5]: 3 to 5 µM

CCc1nc(-c2cc(NC(=O)c3cccc(C(F)(F)F)c3)ccc2C)cc2cnc(Nc3ccc(C)nc3)nc12 [Compound No. 3, N-(3-(8-ethyl-2-((6-methylpyridin-3-yl)amino)pyrido[3,4-d]pyrimidin-6-yl)-4-methylphenyl)-3-(trifluoromethyl)benzamide]
GI50 [1]: 0.5 to 3 µM | GI50 [2]: 0.5 to 3 µM | IC50 [3]: > 10000 nM | IC50 [4]: 100 to 1000 nM | GI50 [5]: > 5 µM

COc1nc(-c2cc(NC(=O)c3cccc(C(F)(F)F)c3)ccc2C)cc2cnc(Nc3ccc(C)nc3)nc12 [Compound No. 8, N-(3-(8-methoxy-2-((6-methylpyridin-3-yl)amino)pyrido[3,4-d]pyrimidin-6-yl)-4-methylphenyl)-3-(trifluoromethyl)benzamide]
GI50 [1]: 0.5 to 3 µM | GI50 [2]: < 0.5 µM | GI50 [5]: 3 to 5 µM

Cc1ccc(Nc2ncc3cc(-c4cc(NC(=O)c5ccc(CN6CCOCC6)c(C(F)(F)F)c5)ccc4C)ncc3n2)cn1 [Compound No. 12, N-(4-methyl-3-(2-((6-methylpyridin-3-yl)amino)pyrido[3,4-d]pyrimidin-6-yl)phenyl)-4-(morpholinemethyl)-3-(trifluoromethyl)benzamide]
GI50 [1]: < 0.5 µM | GI50 [2]: < 0.5 µM | GI50 [5]: > 5 µM

Cc1ccc(Nc2ncc3cc(-c4cc(NC(=O)c5cc(-n6cnc(C)c6)cc(C(F)(F)F)c5)ccc4C)ncc3n2)cn1 [Compound No. 13, 3-(4-methyl-1H-imidazol-1-yl)-N-(4-methyl-3-(2-((6-methylpyridin-3-yl)amino)pyrido[3,4-d]pyrimidin-6-yl)phenyl)-5-(trifluoromethyl)benzamide]
GI50 [1]: < 0.5 µM | GI50 [2]: < 0.5 µM | GI50 [5]: > 5 µM

Cc1ccc(Nc2ncc3cc(-c4cc(NC(=O)c5cc(N6CCOCC6)cc(C(F)(F)F)c5)ccc4C)ncc3n2)cn1 [Compound No. 14, N-(4-methyl-3-(2-((6-methylpyridin-3-yl)amino)pyrido[3,4-d]pyrimidin-6-yl)phenyl)-3-morpholino-5-(trifluoromethyl)benzamide]
GI50 [1]: < 0.5 µM | GI50 [2]: < 0.5 µM | GI50 [5]: 0.5 to 3 µM

Cc1ccc(NC(=O)c2cccc(C(F)(F)F)c2)cc1-c1cc2cnc(N)nc2cn1 [Compound No. 17, N-(3-(2-aminopyrido[3,4-d]pyrimidin-6-yl)-4-methylphenyl)-3-(trifluoromethyl)benzamide]
GI50 [1]: < 0.5 µM | GI50 [2]: < 0.5 µM | GI50 [5]: > 5 µM

Cc1ccc(NC(=O)c2cccc(C(F)(F)F)c2)cc1-c1cc2cnc(NCCO)nc2cn1 [Compound No. 18, N-(3-(2-((2-hydroxyethyl)amino)pyrido[3,4-d]pyrimidin-6-yl)-4-methylphenyl)-3-(trifluoromethyl)benzamide]
GI50 [1]: < 0.5 µM | GI50 [2]: < 0.5 µM | IC50 [3]: 100 to 1000 nM | IC50 [4]: 100 to 1000 nM | GI50 [5]: > 5 µM

Cc1ccc(NC(=O)c2cccc(C(F)(F)F)c2)cc1-c1cc2cnc(NC3CC3)nc2cn1 [Compound No. 19, N-(3-(2-(cyclicpropylamino)-pyrido[3,4-d]pyrimidin-6-yl)-4-methylphenyl)-3-(trifluoromethyl)benzamide]
GI50 [1]: < 0.5 µM | GI50 [2]: < 0.5 µM | IC50 [3]: 100 to 1000 nM | IC50 [4]: 100 to 1000 nM | GI50 [5]: 0.5 to 3 µM

Cc1ccncc1Nc1ncc2cc(-c3cc(NC(=O)c4cccc(C(F)(F)F)c4)ccc3C)ncc2n1 [Compound No. 23, N-(4-methyl-3-(2-((4-methylpyridin-3-yl)amino)pyrido[3,4-d]pyrimidin-6-yl)phenyl)-3-(trifluoromethyl)benzamide]
GI50 [1]: < 0.5 µM | GI50 [2]: < 0.5 µM | GI50 [5]: < 0.5 µM

Cc1ccc(Nc2ncc3cc(-c4cc(NC(=O)c5cccc(C(F)(F)F)c5)ccc4C)ncc3n2)c(C)n1 [Compound No. 24, N-(3-(2-((2,6-dimethylpyridin-3-yl)amino)pyrido[3,4-d]pyrimidin-6-yl)-4-methylphenyl)-3-(trifluoromethyl)benzamide]
GI50 [1]: < 0.5 µM | GI50 [2]: < 0.5 µM | GI50 [5]: > 5 µM

Cc1ccc(Nc2ncc3c(n2)N(C)C(=O)N(c2cc(NC(=O)c4cccc(C(F)(F)F)c4)ccc2C)C3)cn1 [GNF 7, reference compound]
GI50 [1]: 0.5 to 3 µM | GI50 [2]: < 0.5 µM | IC50 [3]: < 100 nM | IC50 [4]: < 100 nM | GI50 [5]: 3 to 5 µM

Reference: US20230120564A1, “PYRIDO[3,4-D]PYRIMIDINE DERIVATIVE AND THERAPEUTIC PHARMACEUTIC COMPOSITION COMPRISING SAME” (KOREA INSTITUTE OF SCIENCE AND TECHNOLOGY, priority 2020, published 2023)
